Test results from US5849923A, “Heterocyclic-substituted naphthalenyl retinobenzoic acid derivatives” (Bristol-Myers Squibb Company, priority 1996, dated 1998).
Like-named read-outs stand apart in the source and are kept apart here.

Columns and labels:
[1] = tested on: L2987; assay: Cytotoxicity assay (alamarBlue), lung line L2987, experiment 2; format: cell-based; conditions: Homo sapiens, read-out: IC50 values for L2987 experiment 2
Method: FIG. 1 is the cytotoxicity dose response curves for lung line L2987. […] Briefly, the assayed involved plating 1000 cells per well in a volume of 120 μL in a 96 well flat-bottom dish (Corning) on day -1. Twenty-four hours later the appropriate dilution of a compound of formula I was added in a volume of 30 μL complete medium (final volume 150 μL). The plates were sealed with a plate sealer (Dynatech Labs) to prevent evaporation. On day 5 the mylar film was removed and 15 μL of sterile alamarblue was added to each well and the cells were incubated 37° C. 5% CO2 for two hours. Using a Vmax plate reader the optical density for each well was determined having the […]. The 100% signal was determined for cells grown in complete medium containing only 0.5% DMSO. All wells were set-up in triplicate and the mean values were plotted in FIG. 1.

[2] = tested on: rhino mouse utriculi; assay: Rhino mouse utriculi reduction assay; format: in vivo, hairless rhino mice (hr^rh /hr^rh); conditions: once daily for 5 days; for ED30 (concentration to reach 30% (half-maximum) utriculi reduction): topical in ethanol vehicle (50 μl), female rhino mice, 0.00033 mM to 16.5 mM; for activity in rhino mouse utriculi reduction model (in words): topical
Method: Representatives from compounds of formula I were tested for their effect on utriculi reduction on rhino mouse and directly compared to all-trans retinoic acid.
Six to nine week old female hairless rhino mice (hr^rh /hr^rh) were produced in the Bristol-Myers Squibb colony. Test retinoids in ethanol vehicle (50 μl) were applied to the dorsal area (approximately 1.5×3 cm^2) of rhino mice once daily for 5 days (Monday to Friday). For various retinoids, a dose response was obtained with concentrations ranging from 0.00033 mM to 16.5 mM. The animals were sacrificed on the following Monday by CO2 inhalation. A 7/8" full thickness punch was taken from the central dorsal area of each animal. The epidermis of the biopsy was removed from the dermis after incubation in 0.5% acetic acid overnight at 4° C. The separated epidermis was then fixed in formalin, dehydrated with ethanol, and cleared in xylene. To determine the utriculi diameter, each epidermis sheet was placed on a glass slide in xylene. For each specimen, the diameter of 40 utricules was measured with an image analysis system (IBM PC, Image Measure program and Olympus microscope with video camera). % Utriculi reduction was calculated as [formula]
Since the maximum effect in this assay is approximately 60% utriculi reduction, the activity of various test compounds is reported as ED30 in Table 1, the concentration to reach 30% (half-maximum) utriculi reduction.

[3] = tested on: squamous-cell carcinoma of the head and neck; conditions: Hong, W. K. et al., N. Engl. J. Med., 1990; cited from earlier work
[4] = 120 h, L2987, experiment 2, read on day 5, alamarBlue

Structure (SMILES): CC1=C(/C=C/C(C)=C/C=C/C(C)=C/C(=O)O)C(C)(C)CCC1 [All trans retinoic acid, reference compound]
- IC50 ([1]; L2987, 120 h): 68 µM

Structure (SMILES): CC1(C)CC=C(c2cccs2)c2cc(C(=O)Nc3ccc(C(=O)O)cc3)ccc21 [I^2 a, 4-[[[[5,6-Dihydro-5,5-dimethvl-8-(2-thienyl)]-2naphthalenyl]carbonyl]amino]benzoic acid]
- ED30 (concentration to reach 30% (half-maximum) utriculi reduction) [2]: > 10000 µM
- IC50 [1, 4]: 64 µM

Structure (SMILES): Cc1ccsc1C1=CCC(C)(C)c2ccc(C(=O)Nc3ccc(C(=O)O)cc3)cc21 [I^2 b]
- IC50 [1, 4]: 50 µM

Structure (SMILES): CC1(C)CC=C(c2ccoc2)c2cc(C(=O)Nc3ccc(C(=O)O)cc3)ccc21 [I^2 d, 4-[[[[5,6-Dihydro-5,5-dimethyl-8-(3-furyl)]-2-naphthalenyl]carbonyl]amino]benzoic acid]
- activity in rhino mouse utriculi reduction model (in words) [2]: inactive

Structure (SMILES): CC1(C)CC=C(c2ccsc2)c2cc(C(=O)Nc3ccc(C(=O)O)cc3)ccc21 [I^2 e, 4-[[[[5,6-Dihydro-5,5-dimethyl-8-(3-thienyl)]-2-naphthalenyl]carbonyl]amino]benzoic acid]
- ED30 (concentration to reach 30% (half-maximum) utriculi reduction) [2]: 3890 µM

Structure (SMILES): CC1(C)CC=C(c2cccnc2)c2cc(C(=O)Nc3ccc(C(=O)O)cc3)ccc21 [I^2 f, 4-[[[[5,6-Dihydro-5,5-dimethyl-8-(3-pyridinyl)]-2-naphthalenyl]carbonyl]amino]benzoic acid]
- activity in rhino mouse utriculi reduction model (in words) [2]: inactive

Structure (SMILES): Cn1cccc1C1=CCC(C)(C)c2ccc(C(=O)Nc3ccc(C(=O)O)cc3)cc21 [I^2 g, 4-[[[[5,6-Dihydro-5,5-dimethyl-8-(2-N-methylpyrolyl)]-2-naphthalenyl]carbonyl]amino]benzoic acid]
- ED30 (concentration to reach 30% (half-maximum) utriculi reduction) [2]: 2070 µM

Structure (SMILES): CC1=C(/C=C/C(C)=C/C=C/C(C)=C\C(=O)O)C(C)(C)CCC1 [Isotretinoin]
- prevention of second primary tumors (in words) [3]: useful in prevention of second primary tumors
